In ChEMBL document CHEMBL4219027, “Lead Optimization of Benzoxepin-Type Selective Estrogen Receptor (ER) Modulators and Downregulators with Subtype-Specific ERα and ERβ Activity” (J Med Chem, 2018):
pIC50: −log10 of the molar value. Activity calls are given as the source filed them. The calls are words filed in the database; no cut-off is given here.

Key:
MCF7 [1] = test: cells; conditions: Homo sapiens, MCF7, 72 h
Description: Antiproliferative activity against ER-dependent human MCF7 cells after 72 hrs by MTT assay

Homo sapiens = organism: Homo sapiens; test: Selectivity index, ratio of IC50 for human recombinant full-length estrogen receptor beta to IC50 for human recombinant full-length estrogen receptor alpha
Estrogen receptor [2] = molecular target: T1, Estrogen receptor (Homo sapiens, UniProt P03372); test: Displacement of fluorescein-labeled estradiol (fluoromone) from human recombinant full-length estrogen receptor alpha after 2 hrs by fluorescence polarization assay
T1 sequence (P03372 whole entry): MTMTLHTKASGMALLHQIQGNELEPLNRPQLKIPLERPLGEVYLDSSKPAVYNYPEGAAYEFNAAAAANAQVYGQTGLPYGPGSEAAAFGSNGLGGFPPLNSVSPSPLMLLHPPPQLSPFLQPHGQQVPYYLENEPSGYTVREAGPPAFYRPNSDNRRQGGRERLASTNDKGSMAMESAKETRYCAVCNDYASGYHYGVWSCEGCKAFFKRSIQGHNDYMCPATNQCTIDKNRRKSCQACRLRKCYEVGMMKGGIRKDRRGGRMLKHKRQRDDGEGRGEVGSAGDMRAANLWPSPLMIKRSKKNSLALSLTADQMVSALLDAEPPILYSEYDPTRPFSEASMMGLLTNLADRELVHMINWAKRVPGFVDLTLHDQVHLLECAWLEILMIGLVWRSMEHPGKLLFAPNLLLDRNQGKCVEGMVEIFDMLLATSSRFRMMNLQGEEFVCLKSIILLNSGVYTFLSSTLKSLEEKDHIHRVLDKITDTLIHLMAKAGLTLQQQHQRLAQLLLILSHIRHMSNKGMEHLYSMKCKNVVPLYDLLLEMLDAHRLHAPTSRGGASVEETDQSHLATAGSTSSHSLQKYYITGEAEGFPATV

Estrogen receptor beta [3] = molecular target: T2, Estrogen receptor beta (Homo sapiens, UniProt Q92731)
Estrogen receptor [4] = molecular target: T3, Estrogen receptor (Homo sapiens, UniProt Q92731+P03372); test: Antagonist activity at estrogen receptor alpha/beta in human Ishikawa cells after 72 hrs by alkaline phosphatase assay; type: cell-based
MCF-10A [5] = test: Cytotoxicity against human MCF10A cells assessed as reduction in cell viability at 10 uM after 24 to 48 hrs by CytoTox 96 non-radioactive LDH cytotoxicity assay; type: cell-based
MCF-10A [6] = test: Cytotoxicity against human MCF10A cells assessed as reduction in cell viability at 1 to 2 uM after 24 to 48 hrs by CytoTox 96 non-radioactive LDH cytotoxicity assay; type: cell-based
Estrogen receptor beta [7] = molecular target: T2, Estrogen receptor beta; test: Downregulation of estrogen receptor beta protein levels in human MCF7 cell lysate at 10 uM after 24 hrs by Western blot analysis
[8] = molecular target: T4, Estrogen receptor (Homo sapiens) (UniProt P03372); test: Downregulation of estrogen receptor alpha protein levels in human MCF7 cell lysate at 10 uM after 24 hrs by Western blot analysis
T4 sequence (whole entry): T1 sequence (P03372 whole entry)

MCF-10A [9] = test: Cytotoxicity against human MCF10A cells assessed as reduction in cell viability at 5 uM after 24 hrs by CytoTox 96 non-radioactive LDH cytotoxicity assay; type: cell-based
Estrogen receptor beta [10] = molecular target: T2, Estrogen receptor beta; test: Estrogenic activity at estrogen receptor beta in human Ishikawa cells at 1 uM after 72 hrs by alkaline phosphatase assay relative to estradiol; type: cell-based
MCF-10A [11] = test: Cytotoxicity against human MCF10A cells assessed as reduction in cell viability at 1 to 10 uM after 24 to 48 hrs by CytoTox 96 non-radioactive LDH cytotoxicity assay; type: cell-based
Estrogen receptor beta [12] = molecular target: T2, Estrogen receptor beta; test: Antagonist activity at estrogen receptor beta in human Ishikawa cells after 72 hrs by alkaline phosphatase assay; type: cell-based
MCF7 [13] = test: cells; conditions: Homo sapiens
Description: Cytotoxicity against human MCF7 cells assessed as reduction in cell viability after 3 to 12 days by MTT assay

Estrogen receptor [14] = molecular target: T3, Estrogen receptor; test: Estrogenic activity at estrogen receptor alpha/beta in human Ishikawa cells at 0.01 uM after 72 hrs by alkaline phosphatase assay relative to estradiol; type: ADME, cell-based
Estrogen receptor [15] = molecular target: T3, Estrogen receptor; test: Estrogenic activity at estrogen receptor alpha/beta in human Ishikawa cells at 10 uM after 72 hrs by alkaline phosphatase assay relative to estradiol; type: ADME, cell-based
[16] = molecular target: estrogen receptor alpha/beta (Homo sapiens, UniProt P03372+Q92731); test: Estrogenic activity at estrogen receptor alpha/beta in human Ishikawa cells at 100 uM after 72 hrs by alkaline phosphatase assay relative to estradiol; type: ADME, cell-based; conditions: read-out: Activity

T2 sequence (Q92731 whole entry): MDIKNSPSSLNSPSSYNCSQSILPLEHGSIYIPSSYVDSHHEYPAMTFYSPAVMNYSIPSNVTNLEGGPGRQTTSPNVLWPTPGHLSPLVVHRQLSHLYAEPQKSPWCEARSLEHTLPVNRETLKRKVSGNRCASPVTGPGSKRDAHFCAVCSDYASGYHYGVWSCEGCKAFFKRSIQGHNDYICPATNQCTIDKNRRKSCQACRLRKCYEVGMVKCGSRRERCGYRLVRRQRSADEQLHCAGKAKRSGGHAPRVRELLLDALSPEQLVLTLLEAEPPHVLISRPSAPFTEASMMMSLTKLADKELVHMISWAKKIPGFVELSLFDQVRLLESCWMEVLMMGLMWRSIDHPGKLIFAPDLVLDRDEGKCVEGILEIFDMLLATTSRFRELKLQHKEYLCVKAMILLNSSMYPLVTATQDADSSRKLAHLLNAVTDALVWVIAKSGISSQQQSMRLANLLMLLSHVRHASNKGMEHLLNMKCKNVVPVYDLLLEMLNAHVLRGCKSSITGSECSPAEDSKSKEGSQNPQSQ

SMILES | pIC50 (MCF7 [1]) | Ratio IC50 (Homo sapiens) | pIC50 (Estrogen receptor [2]) | pIC50 (Estrogen receptor beta [3]) | also measured
O=C(/C=C/c1ccc(C2=C(c3ccc(O)cc3)CCOc3cc(F)ccc32)cc1)N1CCCC1 | 4.85 | 0.038 | 7.17 | 8.62 | 
O=C(/C=C/c1ccc(C2=C(c3ccc(O)cc3)CCOc3cc(F)ccc32)cc1)N1CCN(Cc2ccccc2)CC1 | 5.08 | 1 | 7.13 | 7.14 | 
O=C(O)/C=C/c1ccc(C2=C(c3ccc(O)cc3)CCOc3ccccc32)cc1 | 4.68 | 2.2 | 7.68 | 7.34 | IC50 (Estrogen receptor [4]): 0.67 µM
O=Cc1ccc(C2=C(c3ccc(O)cc3)CCOc3cc(F)ccc32)cc1 |  |  | 6.39 | 6.40 | 
O=C(O)/C=C/C=C/c1ccc(C2=C(c3ccc(O)cc3)CCOc3cc(F)ccc32)cc1 | 5.80 | 0.008 | 7.15 | 9.26 | Activity (MCF-10A [5]): Toxic; Activity (MCF-10A [6]): Non-Toxic; Activity (Estrogen receptor beta [7]): Active; Activity [8]: Active; Activity (MCF-10A [9]): 50%
Oc1ccc(C2=C(c3ccc(/C=C/c4ccccc4)cc3)c3ccc(F)cc3OCC2)cc1 | 4.92 | 0.6 | 4.65 | 4.84 | 
CN1CCN(C(=O)/C=C/c2ccc(C3=C(c4ccc(O)cc4)CCOc4cc(F)ccc43)cc2)CC1 | 6.32 | 6.3 | 7.24 | 6.45 | 
O=C(/C=C/c1ccc(C2=C(c3ccc(O)cc3)CCOc3cc(F)ccc32)cc1)c1ccccc1 | 6.01 | 4.2 | 6.98 | 6.35 | 
O=C(O)CCCOc1ccc(C2=C(c3ccc(O)cc3)CCOc3cc(F)ccc32)cc1 | < 4.70 | 0.008 | 6.83 | 8.91 | Activity (Estrogen receptor beta [10]): 3.2%; Activity (MCF-10A [11]): Non-Toxic; Activity (Estrogen receptor beta [7]): Active; pIC50 (Estrogen receptor beta [12]): 6.37; Activity [8]: inactive
Cc1ccc(N2CCN(C(=O)/C=C/c3ccc(C4=C(c5ccc(O)cc5)CCOc5cc(F)ccc54)cc3)CC2)cc1 | 5.98 | 4.3 | 7.32 | 6.69 | 
O=C(/C=C/c1ccc(C2=C(c3ccc(O)cc3)CCOc3cc(F)ccc32)cc1)N1CCNCC1 | 5.02 | 1.9 | 7.85 | 7.60 | 
COc1ccc2c(c1)OCCC(c1ccc(O)cc1)=C2c1ccc(OCC(=O)O)cc1 | < 4.70 | 2.4 | 6.37 | 5.99 | 
CCC(=C(c1ccc(O)cc1)c1ccc(/C=C/C(=O)O)cc1)c1ccccc1 | 5.89 |  |  |  | pIC50 (MCF7 [13]): 6.00 to 7.00
O=C(O)COc1ccc(C2=C(c3ccc(O)cc3)CCOc3cc(F)ccc32)cc1 | < 4.70 | 0.054 | 6.20 | 7.47 | 
CCC(=C(c1ccc(O)cc1)c1ccc(OCCN(C)C)cc1)c1ccccc1 | 6.96 |  |  |  | 
O=C(/C=C/c1ccc(C2=C(c3ccc(O)cc3)CCOc3cc(F)ccc32)cc1)Nc1ccccc1 | 5.89 | 0.087 | 7.93 | 9.03 | 
CCNC(=O)/C=C/c1ccc(C2=C(c3ccc(O)cc3)CCOc3cc(F)ccc32)cc1 | 6.15 |  |  |  | 
COc1ccc2c(c1)OCCC(c1ccc(O)cc1)=C2c1ccc(/C=C/C(=O)O)cc1 | < 4.70 | 5.3 | 7.64 | 6.92 | IC50 (Estrogen receptor [4]): > 1 µM; Activity (Estrogen receptor [14]): 15.8%
O=C(O)/C=C/c1ccc(C2=C(c3ccc(O)cc3)CCSc3cc(F)ccc32)cc1 | 7.02 | 0.8 | 8.39 | 8.51 | IC50 (Estrogen receptor [4]): 0.18 µM; Activity (Estrogen receptor [15]): 1.6%
CC(=O)/C=C/c1ccc(C2=C(c3ccc(O)cc3)CCOc3cc(F)ccc32)cc1 | 6.05 | 3 | 7.23 | 6.76 | IC50 (Estrogen receptor [4]): 0.45 µM
CCN(CC)CCNC(=O)/C=C/c1ccc(C2=C(c3ccc(O)cc3)CCOc3cc(F)ccc32)cc1 | 5.06 | 0.58 | 5.99 | 6.23 | 
O=C(O)/C=C/c1ccc(C2=C(c3ccc(O)cc3)CCOc3cc(F)ccc32)cc1 | 6.59 | 5.2 | 7.85 | 7.14 | IC50 (Estrogen receptor [4]): 1.39 µM
CCN(CC)C(=O)/C=C/c1ccc(C2=C(c3ccc(O)cc3)CCOc3cc(F)ccc32)cc1 | 4.89 | 0.12 | 6.46 | 7.37 | IC50 (Estrogen receptor [4]): 0.0098 µM; activity at 72 h, 100 µM [16]: 10%
